From the supplement of paper PMC10307832

Tests used:
Test in all cases: relative viability (nuclei count vs DMSO), 5 days (fraction); higher = more cells survive
BI-2536 + Phenformin = compound: CC[C@@H]1C(=O)N(C)c2cnc(Nc3ccc(C(=O)NC4CCN(C)CC4)cc3OC)nc2N1C1CCCC1 [BI-2536] + N=C(N)NC(=N)NCCc1ccccc1 [Phenformin] (partner 250 µM)
Outline: (§1)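 Relative viability is defined as nuclei in treated wells over nuclei in vehicle wells. Duplicate plates were run and medians reported. Lung cancer cell lines in 1536-well plates were dosed by pin tool one day after seeding, with one drug or with a fixed anchor-drug dose plus five library-drug doses (not always all listed) in √10 steps, and nuclei were counted after 5 days.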

[1] = compound: CC1CC(=O)N(C2=CN=C(N=C2N1C3CCCC3)NC4=C(C=C(C=C4)C(=O)NC5CCN(CC5)C)OC)C [NPK76-II-72-1] + CS(=O)(=O)CCNCc1ccc(-c2ccc3ncnc(Nc4ccc(OCc5cccc(F)c5)c(Cl)c4)c3c2)o1 [Lapatinib] (partner 2 µM)
Outline: as §1

BI-2536 + Palbociclib = compound: CC[C@@H]1C(=O)N(C)c2cnc(Nc3ccc(C(=O)NC4CCN(C)CC4)cc3OC)nc2N1C1CCCC1 [BI-2536] + CC(=O)c1c(C)c2cnc(Nc3ccc(N4CCNCC4)cn3)nc2n(C2CCCC2)c1=O [Palbociclib] (partner 0.5 µM)
Outline: as §1

BI-2536 + Luminespib = compound: CC[C@@H]1C(=O)N(C)c2cnc(Nc3ccc(C(=O)NC4CCN(C)CC4)cc3OC)nc2N1C1CCCC1 [BI-2536] + CCNC(=O)c1noc(-c2cc(C(C)C)c(O)cc2O)c1-c1ccc(CN2CCOCC2)cc1 [Luminespib] (partner 0.01 µM)
Outline: as §1

Cell Line	relative viability (BI-2536 + Phenformin; first compound 0.01 µM)	relative viability (BI-2536 + Phenformin; first compound 0.03162 µM)	relative viability (BI-2536 + Phenformin; first compound 0.1 µM)	relative viability (BI-2536 + Phenformin; first compound 0.3162 µM)	relative viability (BI-2536 + Phenformin; first compound 1 µM)	relative viability ([1]; first compound 0.01 µM)	relative viability ([1]; first compound 0.03162 µM)	relative viability ([1]; first compound 0.1 µM)	relative viability ([1]; first compound 0.3162 µM)	relative viability ([1]; first compound 1 µM)	relative viability (BI-2536 + Palbociclib; first compound 0.01 µM)	relative viability (BI-2536 + Palbociclib; first compound 0.03162 µM)	relative viability (BI-2536 + Palbociclib; first compound 0.1 µM)	relative viability (BI-2536 + Palbociclib; first compound 0.3162 µM)	relative viability (BI-2536 + Palbociclib; first compound 1 µM)	relative viability (BI-2536 + Luminespib; first compound 0.01 µM)	relative viability (BI-2536 + Luminespib; first compound 0.03162 µM)	relative viability (BI-2536 + Luminespib; first compound 0.1 µM)	relative viability (BI-2536 + Luminespib; first compound 0.3162 µM)	relative viability (BI-2536 + Luminespib; first compound 1 µM)
NCI-H2126	0.5	0.495	0.231	0.279	0.247	0.686	0.806	0.755	0.733	0.823	0.324	0.368	0.352	0.276	0.232	0.855	0.512	0.392	0.278	0.32
NCI-H3122	0.38	0.34	0.137	0.158	0.127	1.02	1.03	0.966	1.1	1.04	0.191	0.175	0.171	0.132	0.159	0.11	0.0932	0.107	0.0899	0.0757
NCI-H1975	0.394	0.355	0.215	0.126	0.118	0.813	0.878	0.928	0.886	0.955	0.349	0.648	0.461	0.14	0.158	0.253	0.209	0.231	0.158	0.149
NCI-H1944	0.206	0.243	0.122	0.0925	0.113	0.81	0.808	0.904	0.825	0.71	0.304	0.329	0.308	0.173	0.15	0.694	0.794	0.863	0.107	0.136
LU99A	0.816	0.823	0.212	0.197	0.2	0.965	0.98	1.02	0.857	1.04	0.37	0.445	0.318	0.152	0.147	0.251	0.254	0.194	0.159	0.241
SW 1573	0.333	0.283	0.131	0.106	0.0811	1.03	1.09	1.04	1	1.16	0.347	0.237	0.172	0.116	0.0925	0.123	0.117	0.152	0.122	0.0874
NCI-H2347		0.28	0.382	0.276	0.211	0.95	1.06	0.857	0.717	1.08	0.471	0.426	0.369	0.385	0.387		0.517	0.41	0.378	0.272
NCI-H2009	0.468	0.406	0.233	0.183	0.105	0.961	1.09	0.888	0.774	1.15	0.195	0.171	0.119	0.142	0.0906	1.09	0.94	0.696	0.16	0.0773
HCC-15	0.474	0.485	0.149	0.103	0.108	0.85	0.879	0.787	0.749	0.895	0.704	0.66	0.547	0.17	0.144	0.265	0.339	0.144	0.116	0.134
HCC-78	0.74	0.721	0.636	0.315	0.197		0.642	0.706		1.01	0.566	0.475	0.431	0.436	0.318					
NCI-H1299						0.949	1.01	0.957	0.961	0.954										
LCLC-103H	0.306	0.338	0.295	0.152	0.143						0.473	0.508	0.421	0.371	0.294	0.95	1.05	0.842	0.188	0.184
ChaGo-K-1	0.492	0.507	0.238	0.158	0.148						0.908	0.845	0.785	0.187	0.188	0.691	0.615	0.529	0.16	0.178
NCI-H1648											0.288	0.131	0.251	0.229	0.29					
NCI-H596	0.729	0.737	0.917	0.358	0.245	1	1.14	1.07	0.914	1.09						1.02	1.12	0.986	0.37	0.29
NCI-H1563	0.719	0.63	0.683	0.525	0.498	0.976	1.03	0.946	0.942	1.02						0.483	0.547	0.545	0.507	0.372
A549	0.143	0.132	0.0229	0.0377	0.0372	0.881	1.11	0.963	0.869	1.07										
NCI-H522	0.525	0.641	0.404	0.446	0.401						1	0.922	1.13	0.4	0.303	1.21	1.08	1.04	0.375	0.318
NCI-H1623	0.564	0.54	0.556	0.445	0.588											0.402	0.508	0.374	0.405	0.388
SW 900	0.683	0.564	0.493	0.106	0.146						0.549	0.487	0.471	0.313	0.219	0.189	0.186	0.173	0.198	0.201
IA-LM						0.786	0.877	0.804	0.785	1.03										
EBC-1						0.193	0.182	0.218	0.229	0.218										
